# Data: patent publication US12539292B2, “BRM targeting compounds and associated methods of use” (Arvinas Operations, Inc., priority 2018, dated 2026)
# Read-outs that look alike come from different tables or passages of the source.
# Target: T1, BRM (Homo sapiens, UniProt P51531)
# T1 construct: In-Cell Western Screen of BRM Degradation in SW1573 Cells; endogenous in cells; host or cells: SW1573
# Assay: In-cell Western screen of BRM degradation in SW1573 cells (Dmax and DC50)
# Assay type: cell-based
# Outline: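 Adherent SW1573 cultures exposed to test compounds for 18-20 h were processed for in-cell Western after PFA fixation and detergent permeabilization. BRM degradation was reported as Dmax and DC50.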
# [1] = BRM degradation, SW1573 cells, read-out: DC50
# [2] = BRM degradation, SW1573 cells, when tested at the top concentration of between 0.3 and 10 μM, read-out: Dmax (%) (% degraded)
# [3] = BRM degradation, SW1573 cells, read-out: Dmax (% degraded)
# [4] = BRM degradation, SW1573 cells, Table 2D, read-out: **Dmax (%) (% degraded)
# [5] = BRM degradation, SW1573 cells, Table 2D, read-out: *DC50
# T1 sequence (P51531 whole entry): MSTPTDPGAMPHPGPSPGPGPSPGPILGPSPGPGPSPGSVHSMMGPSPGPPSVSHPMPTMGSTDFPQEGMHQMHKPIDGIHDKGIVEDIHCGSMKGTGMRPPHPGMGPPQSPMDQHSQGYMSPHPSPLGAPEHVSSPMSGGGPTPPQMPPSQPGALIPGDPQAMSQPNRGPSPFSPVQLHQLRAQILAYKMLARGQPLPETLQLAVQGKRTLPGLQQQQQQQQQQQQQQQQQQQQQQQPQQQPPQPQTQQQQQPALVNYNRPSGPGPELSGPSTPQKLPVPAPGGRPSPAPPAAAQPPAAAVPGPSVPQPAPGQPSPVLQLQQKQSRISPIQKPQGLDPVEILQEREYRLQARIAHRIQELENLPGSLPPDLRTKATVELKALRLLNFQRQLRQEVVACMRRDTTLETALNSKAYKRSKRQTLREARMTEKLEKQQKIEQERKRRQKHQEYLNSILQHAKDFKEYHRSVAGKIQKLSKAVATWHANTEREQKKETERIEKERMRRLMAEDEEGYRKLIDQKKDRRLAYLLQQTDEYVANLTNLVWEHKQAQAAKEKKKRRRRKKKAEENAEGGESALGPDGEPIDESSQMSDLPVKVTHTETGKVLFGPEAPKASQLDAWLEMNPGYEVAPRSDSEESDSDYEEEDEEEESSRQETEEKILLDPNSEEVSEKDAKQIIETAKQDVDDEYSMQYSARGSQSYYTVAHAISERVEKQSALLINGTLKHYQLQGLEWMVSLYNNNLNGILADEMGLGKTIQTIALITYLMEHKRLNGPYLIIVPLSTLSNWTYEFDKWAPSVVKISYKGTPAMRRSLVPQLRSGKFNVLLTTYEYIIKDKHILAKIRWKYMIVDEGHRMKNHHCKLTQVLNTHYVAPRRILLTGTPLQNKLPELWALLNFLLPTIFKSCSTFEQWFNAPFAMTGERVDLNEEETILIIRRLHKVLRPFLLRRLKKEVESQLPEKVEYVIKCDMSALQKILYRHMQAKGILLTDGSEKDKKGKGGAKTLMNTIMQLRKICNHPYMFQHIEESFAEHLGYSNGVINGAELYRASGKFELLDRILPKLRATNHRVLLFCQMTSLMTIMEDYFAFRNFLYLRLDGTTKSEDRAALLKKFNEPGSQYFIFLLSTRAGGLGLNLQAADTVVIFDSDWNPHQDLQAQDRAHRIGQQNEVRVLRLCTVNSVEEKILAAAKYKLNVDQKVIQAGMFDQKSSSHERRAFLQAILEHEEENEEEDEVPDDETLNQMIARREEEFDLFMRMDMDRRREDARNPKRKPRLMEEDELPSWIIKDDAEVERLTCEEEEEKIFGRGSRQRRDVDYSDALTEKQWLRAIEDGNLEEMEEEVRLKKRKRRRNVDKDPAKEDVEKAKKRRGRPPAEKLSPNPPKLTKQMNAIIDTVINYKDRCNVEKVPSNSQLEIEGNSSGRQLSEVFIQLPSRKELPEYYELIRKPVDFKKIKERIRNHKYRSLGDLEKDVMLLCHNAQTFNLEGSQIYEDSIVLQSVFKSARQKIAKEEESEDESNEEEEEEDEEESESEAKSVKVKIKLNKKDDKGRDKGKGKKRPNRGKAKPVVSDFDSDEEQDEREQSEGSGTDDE
smiles,measurement,setting,value
"Cc1ncsc1-c1ccc(CNC(=O)[C@@H]2C[C@@H](O)CN2C(=O)[C@@H](NC(=O)COCCOCCOCCOc2cncc(N3C4CCC3CN(c3cc(-c5ccccc5O)nnc3N)C4)n2)C(C)(C)C)cc1 [compound 34, (2S,4R)-1-[(2S)-2-[1-(6-[3-[3-amino-6-(2-hydroxyphenyl)pyridazin-4-yl]-3,8-diazabicyclo[3.2.1]octan-8-yl]pyrazin-2-yl)-1,4,7,10-tetraoxadodecan-12-amido]-3,3-dimethylbutanoyl]-4-hydroxy-N-[[4-(4-methyl-1,3-thiazol-5-yl)phenyl]methyl]pyrrolidine-2-carboxamide]",DC50,[1],> 30 nM
same,Dmax,[2],> 75%
"Cc1ncsc1-c1ccc([C@H](C)NC(=O)[C@@H]2C[C@@H](O)CN2C(=O)[C@@H](c2cc(OCCN3CC[C@H](O[C@H]4C[C@H](Oc5cc(N6C7CCC6CN(c6cc(-c8ccccc8O)nnc6N)C7)ccn5)C4)C[C@@H]3C)no2)C(C)C)cc1 (single isomer, unassigned) [compound 636]",DC50,[1],< 2.5 nM
same,Dmax,[3],> 75%
"CC(=O)N1CC(NC(=O)[C@@H]2C[C@@H](O)CN2C(=O)[C@H](c2cc(OCCN3CCN(CCOc4cc(N5C6CCC5CN(c5cc(-c7ccccc7O)nnc5N)C6)ccn4)CC3)no2)C(C)C)(c2ccc(-c3scnc3C)cc2)C1 [compound 235, (2S,4R)-N-(1-acetyl-3-(4-(4-methylthiazol-5-yl)phenyl)azetidin-3-yl)-1-((2S)-2-(3-(2-(4-(2-((4-(3-(3-amino-6-(2-hydroxyphenyl)pyridazin-4-yl)-3,8-diazabicyclo[3.2.1]octan-8-yl)pyridin-2-yl)oxy)ethyl)piperazin-1-yl)ethoxy)isoxazol-5-yl)-3-methylbutanoyl)-4-hydroxypyrrolidine-2-carboxamide]",DC50,[1],> 30 nM
"Cc1ncsc1-c1ccc([C@H](C)NC(=O)[C@@H]2C[C@@H](O)CN2C(=O)[C@H](c2cc(N3CCN(C(C)(C)C4CCN(C[C@H]5C[C@H](Oc6cc(N7C8CCC7CN(c7cc(-c9ccccc9O)nnc7N)C8)ccn6)C5)CC4)CC3)no2)C(C)C)cc1 [compound 714, (2S,4R)-1-((2S)-2-(3-(4-(2-(1-(((1r,3r)-3-((4-(3-(3-amino-6-(2-hydroxyphenyl)pyridazin-4-yl)-3,8-diazabicyclo[3.2.1]octan-8-yl)pyridin-2-yl)oxy)cyclobutyl)methyl)piperidin-4-yl)propan-2-yl)piperazin-1-yl)isoxazol-5-yl)-3-methylbutanoyl)-4-hydroxy-N-((S)-1-(4-(4-methylthiazol-5-yl)phenyl)ethyl) pyrrolidine-2-carboxamide]",DC50,[1],> 30 nM
"Cc1ncsc1-c1ccc([C@H](C)NC(=O)[C@@H]2C[C@@H](O)CN2C(=O)[C@@H](c2cc(OCCN3CC[C@@H](OCCc4cc(N5C6CCC5CN(c5cc(-c7ccccc7O)nnc5N)C6)ccn4)C[C@@H]3C)no2)C(C)C)cc1 (racemic) [compound 567, (2S,4R)-1-((2R)-2-(3-(2-((2S,4R)-4-(2-(4-(3-(3-amino-6-(2-hydroxyphenyl)pyridazin-4-yl)-3,8-diazabicyclo[3.2.1]octan-8-yl)pyridin-2-yl)ethoxy)-2-methylpiperidin-1-yl)ethoxy)isoxazol-5-yl)-3-methylbutanoyl)-4-hydroxy-N-((S)-1-(4-(4-methylthiazol-5-yl)phenyl)ethyl) pyrrolidine-2-carboxamide]",Dmax,[4],> 75%
same,DC50,[5],2.5 to 10 nM
"CC(C)[C@H](C(=O)N1C[C@H](O)C[C@H]1C(=O)N[C@@H](C)c1ccc(-c2scnc2N)cc1)c1cc(N2CCC(CN3CCC(O[C@H]4C[C@H](Oc5cc(N6C7CCC6CN(c6cc(-c8ccccc8O)nnc6N)C7)ccn5)C4)CC3)CC2)no1 [compound 629, (2S,4R)-1-((2S)-2-(3-(4-((4-((1r,3r)-3-((4-(3-(3-amino-6-(2-hydroxyphenyl)pyridazin-4-yl)-3,8-diazabicyclo[3.2.1]octan-8-yl)pyridin-2-yl)oxy)cyclobutoxy)piperidin-1-yl)methyl)piperidin-1-yl)isoxazol-5-yl)-3-methylbutanoyl)-N-((S)-1-(4-(4-aminothiazol-5-yl)phenyl)ethyl)-4-hydroxypyrrolidine-2-carboxamide]",DC50,[1],2.5 to 10 nM
same,Dmax,[3],> 75%
"Cc1nccn1-c1ccc([C@H](C)NC(=O)[C@@H]2C[C@@H](O)CN2C(=O)[C@H](c2cc(N3CCN(C[C@H]4C[C@H](Oc5cc(N6C7CCC6CN(c6cc(-c8ccccc8O)nnc6N)C7)ccn5)C4)CC3)no2)C(C)C)cc1 [compound 575, (2S,4R)-1-((2S)-2-(3-(4-(((1r,3S)-3-((4-(3-(3-amino-6-(2-hydroxyphenyl)pyridazin-4-yl)-3,8-diazabicyclo[3.2.1]octan-8-yl)pyridin-2-yl)oxy)cyclobutyl)methyl)piperazin-1-yl)isoxazol-5-yl)-3-methylbutanoyl)-4-hydroxy-N-((S)-1-(4-(2-methyl-1H-imidazol-1-yl)phenyl)ethyl)pyrrolidine-2-carboxamide]",Dmax,[4],50 to 75%
same,DC50,[5],10 to 30 nM
"Cc1nccn1-c1ccc([C@H](C)NC(=O)[C@@H]2C[C@@H](O)CN2C(=O)[C@H](c2cc(OCC#Cc3ccc(O[C@H]4C[C@H](Oc5cc(N6C7CCC6CN(c6cc(-c8ccccc8O)nnc6N)C7)ccn5)C4)cn3)no2)C(C)C)cc1 [compound 233, (2S,4R)-1-((2S)-2-(3-((3-(5-((1r,3S)-3-((4-(3-(3-amino-6-(2-hydroxyphenyl)pyridazin-4-yl)-3,8-diazabicyclo[3.2.1]octan-8-yl)pyridin-2-yl)oxy)cyclobutoxy)pyridin-2-yl)prop-2-yn-1-yl)oxy)isoxazol-5-yl)-3-methylbutanoyl)-4-hydroxy-N-((S)-1-(4-(2-methyl-1H-imidazol-1-yl)phenyl)ethyl)pyrrolidine-2-carboxamide]",DC50,[1],10 to 30 nM
same,Dmax,"BRM degradation, SW1573 cells, tested at the top concentration of between 0.3 and 10 μM, read-out: Dmax (%) (% degraded)",> 75%
"Cc1nccn1-c1ccc([C@H](C)NC(=O)[C@@H]2C[C@@H](O)CN2C(=O)[C@H](c2cc(N3CCC(OC4CCN(C[C@H]5C[C@H](Oc6cc(N7C8CCC7CN(c7cc(-c9ccccc9O)nnc7N)C8)ccn6)C5)CC4)CC3)no2)C(C)C)cc1 [compound 477, (2S,4R)-1-((2S)-2-(3-(4-((1-(((1r,3r)-3-((4-(3-(3-amino-6-(2-hydroxyphenyl)pyridazin-4-yl)-3,8-diazabicyclo[3.2.1]octan-8-yl)pyridin-2-yl)oxy)cyclobutyl)methyl)piperidin-4-yl)oxy)piperidin-1-yl)isoxazol-5-yl)-3-methylbutanoyl)-4-hydroxy-N-((S)-1-(4-(2-methyl-1H-imidazol-1-yl)phenyl)ethyl)pyrrolidine-2-carboxamide]",DC50,"target protein degradation, read-out: BRM DC50",> 30 nM
"Cc1ncsc1-c1ccc([C@H](C)NC(=O)[C@@H]2C[C@@H](O)CN2C(=O)[C@@H](c2cc(OCC#Cc3ccc(O[C@H]4C[C@H](Oc5cc(N6C7CCC6CN(c6cc(-c8ccccc8O)nnc6N)C7)ccn5)C4)cn3)no2)C(C)C)cc1 [compound 70, (2S,4R)-1-((2R)-2-(3-((3-(5-((1r,3R)-3-((4-(3-(3-amino-6-(2-hydroxyphenyl)pyridazin-4-yl)-3,8-diazabicyclo[3.2.1]octan-8-yl)pyridin-2-yl)oxy)cyclobutoxy)pyridin-2-yl)prop-2-yn-1-yl)oxy)isoxazol-5-yl)-3-methylbutanoyl)-4-hydroxy-N-((S)-1-(4-(4-methylthiazol-5-yl)phenyl)ethyl)pyrrolidine-2-carboxamide]",DC50,[1],< 2.5 nM
same,Dmax,[2],> 75%
"Cc1ncsc1-c1ccc([C@H](C)NC(=O)[C@@H]2C[C@@H](O)CN2C(=O)[C@@H](c2cc(N3CCC4(CC3)CN(C[C@H]3C[C@H](Oc5cc(N6C7CCC6CN(c6cc(-c8ccccc8O)nnc6N)C7)ccn5)C3)CCO4)no2)C(C)C)cc1 [compound 624, (2S,4R)-1-((2R)-2-(3-(4-(((1r,3R)-3-((4-(3-(3-amino-6-(2-hydroxyphenyl)pyridazin-4-yl)-3,8-diazabicyclo[3.2.1]octan-8-yl)pyridin-2-yl)oxy)cyclobutyl)methyl)-1-oxa-4,9-diazaspiro[5.5]undecan-9-yl)isoxazol-5-yl)-3-methylbutanoyl)-4-hydroxy-N-((S)-1-(4-(4-methylthiazol-5-yl)phenyl)ethyl)pyrrolidine-2-carboxamide]",Dmax,[4],> 75%
same,DC50,[5],< 2.5 nM
"Cc1ncsc1-c1ccc([C@H](C)NC(=O)[C@@H]2C[C@@H](O)CN2C(=O)[C@H](c2cc(N3CCN(C(C)[C@H]4C[C@H](Oc5cc(N6C7CCC6CN(c6cc(-c8ccccc8O)nnc6N)C7)ccn5)C4)CC3)no2)C(C)C)cc1 (stereo partly drawn) [compound 703, (2S,4R)-1-((2S)-2-(3-(4-((1S)-1-((1r,3S)-3-((4-(3-(3-amino-6-(2-hydroxyphenyl)pyridazin-4-yl)-3,8-diazabicyclo[3.2.1]octan-8-yl)pyridin-2-yl)oxy)cyclobutyl)ethyl)piperazin-1-yl)isoxazol-5-yl)-3-methylbutanoyl)-4-hydroxy-N-((S)-1-(4-(4-methylthiazol-5-yl)phenyl)ethyl)pyrrolidine-2-carboxamide]",DC50,[1],2.5 to 10 nM
same,Dmax,[3],> 75%
"Cc1ncsc1-c1ccc(CNC(=O)[C@@H]2C[C@@H](O)CN2C(=O)[C@@H](NC(=O)COCCOCCOCCn2cc(-c3cc(-c4ccccc4O)nnc3N)cn2)C(C)(C)C)cc1 [compound 1, (2S,4R)-1-((S)-14-(4-(3-amino-6-(2-hydroxyphenyl)pyridazin-4-yl)-1H-pyrazol-1-yl)-2-(tert-butyl)-4-oxo-6,9,12-trioxa-3-azatetradecanoyl)-4-hydroxy-N-(4-(4-methylthiazol-5-yl)benzyl)pyrrolidine-2-carboxamide]",DC50,[1],> 30 nM
same,Dmax,[2],> 75%
